In patent publication US6379676B2, “Enhancing immune response in animals” (priority 1999, dated 2002):

Tested on: E. coli
Procedure: The term “resistant to contamination by pathogenic bacteria” means that a challenge with 1000 colony forming units (CFU) per gram of feed results in the death of substantially all the bacteria within 24 to 72 hours. In particular, the term “resistance to contamination by Salmonella or E. coli” means that a challenge with 1000 CFUs of Salmonella or E. coli per gram of feed results in 1 CFU or less per 25 grams of feed after 24 hours incubation at 25° C.
One set of samples was treated with a coarse spray (270 microns) at 1.8 gal/hr. (6.81 liters/hr.) and another was treated with fine mist (43 microns) at 25.5 gal/hr. (96.5 liters/hr.). Each sample of 500 grams was challenged with 20 ml of a liquid inoculum of Escherishia coli (>10^6 CFU/ml) one week after treatment.

With `C=O` [formaldehyde] the “time finished feed resists contamination by E. coli” value (2 lbs. (0.91 kg) dry wt. per metric ton, 2.0% CV, 1000 CFUs/gram of feed) was “about 60 days” and the “resistance as measured by challenge with E. coli” value (4 lbs. (1.81 kg) dry wt. per metric ton of finished feed, 7% CV, 1000 CFU/gram of feed) was “about 30 days”.
